Measured values as given in patent publication EP1000623A1, “Use of epinastine as antitussivum” (Boehringer Ingelheim International GmbH, priority 1998, dated 2000).
Counter-ions that a name gives are not always drawn.

System: place preference
Test: Place conditioning (conditioned place preference, shuttle box)
Type: in vivo, Male ICR mice
Details: 1 mg/kg, s.c.; mean ± S.E., n=8; time in drug-paired minus saline-paired place, 900-s session
Procedure: Male ICR mice (6 weeks old; Tokyo Laboratory Animals Science Co., Ltd., Tokyo, Japan), weighing about 30 g, were used. They had free access to food and water in an animal room which was maintained at 22 ± 1°C with a 12-hour light-dark cycle. This study was carried out in accordance with the Declaration of Helsinki and/or with the guide for the care and use of laboratory animals as adopted by the committee on the care and use of laboratory animals of Hoshi University, which is accredited by the Ministry of Education, Science, Sports and Culture, Japan.
Place conditioning was conducted as previously using a minor modification of an unbaised procedure [J. Kamei et al., Eur. J. Pharmacol. 318 (1996) 251]. The apparatus used was a shuttle box (15 x 30 x 15 cm: w x 1 x h) which was divided into two compartments of equal size. […] The time spent in each compartment during a 900-s session was then measured in a blinded fashion by an infrared beam sensor (KN-80, Natume, Tokyo, Japan). […]
The potency ration was calculated according to a statistical program (Program 11 of the Pharmacological Calculations System) (8). Conditioning scores represent the time spent in the drug paired place minus the time spent in the saline-paired place, and are expressed as mean ± S.E. The Wilcoxon test was used to determine whether individual doses produced a significant conditioning (P<0.05).

With `NC1=NCC2c3ccccc3Cc3ccccc3N12` (stereo not shown) [epinastine, epinastine hydrochloride] the mean conditioning score was 20.3 ± 61.8 s.
